Data: article PMC12703733, “Probing Guanidino Pendant or Bridged Groups in Cyclic Antimicrobial Peptides Derived from Temporin L: A Strategy to Improve Efficacy against Gram-Negative Bacteria” (Journal of Medicinal Chemistry, 2025)
In brackets after ≈: the same amount, converted by molar mass. Bridge positions count the residues as written; N and C are the ends. Square brackets hold non-standard residues; d marks the D form. Ends that are not written are not given here. Peptide text beside a SMILES is read from it. Phe(4-guanidino) = N=C(N)Nc1ccc(C[C@H](N)C(=O)O)cc1

Experiments:
circular dichroism = details: water; pH ns; 25 °C; 150 uM
A. baumannii ATCC 19606 = experiment: microbe, parasite or virus in culture; type: cell-based; details: ATCC 19606
Protocol: (§1) Bacterial strains used in this study were the Gram-positive S. aureus ATCC 25923, S. epidermidis ATCC 12228, B. megaterium BM11, S. [NT] 27591, E. faecalis ATCC 29212 and the Gram-negative E. coli ATCC 25922, P. aeruginosa ATCC 27853, A. baumannii ATCC 19606, E. coli D21 and P. aeruginosa PAO1. […] Bacterial cells in the mid log phase were diluted in Muller Hinton (MH) at a concentration of 2 × 10^6 cell/mL. […] Ciprofloxacin was used as antibiotic control. The plate was then incubated at 37 °C. MICs were obtained from three identical readings of four independent experiments.

B. megaterium BM11 = experiment: microbe, parasite or virus in culture; type: cell-based; details: BM11
Protocol: as §1

E. coli ATCC 25922 = experiment: microbe, parasite or virus in culture; type: cell-based; details: ATCC 25922
Protocol: as §1

E. coli D21 = experiment: microbe, parasite or virus in culture; type: cell-based; details: D21
Protocol: as §1

E. faecalis ATCC 29212 = experiment: microbe, parasite or virus in culture; type: cell-based; details: ATCC 29212
Protocol: as §1

P. aeruginosa PAO1 = experiment: microbe, parasite or virus in culture; type: cell-based; details: PAO1
Protocol: as §1

S. agalactiae ATCC 27591 = experiment: microbe, parasite or virus in culture; type: cell-based; details: ATCC 27591
Protocol: as §1

S. aureus ATCC 25923 = experiment: microbe, parasite or virus in culture; type: cell-based; details: ATCC 25923
Protocol: as §1

[1] = tested on: S. epidermidis ATCC 12228; experiment: microbe, parasite or virus in culture; type: cell-based; details: ATCC 12228
Protocol: as §1

all bacteria tested = experiment: MIC panel, geometric mean over all strains; type: cell-based; details: geometric mean of the MICs against all bacteria tested
Protocol: (§2) The antimicrobial efficacy of the TLcyc analogues was assessed against a representative panel of Gram-positive and Gram-negative bacterial strains, by determining their minimal inhibitory concentrations (MIC), as summarized in Table . To provide an integrated measure of antimicrobial potency, we calculated the geometric mean (GM) of MIC values across all strains (GMall), as well as separately for Gram-positive (GMGram+) and Gram-negative (GMGram–) bacteria.
(§3) Bacterial strains used in this study were the Gram-positive S. aureus ATCC 25923, S. epidermidis ATCC 12228, B. megaterium BM11, S. agalactiae ATCC 27591, E. faecalis ATCC 29212 and the Gram-negative E. coli ATCC 25922, P. aeruginosa ATCC 27853, A. baumannii ATCC 19606, E. coli D21 and P. aeruginosa PAO1. […] Bacterial cells in the mid log phase were diluted in Muller Hinton (MH) at a concentration of 2 × 10^6 cell/mL. Aliquots of 50 μL of this bacterial suspension were added to 50 μL of MH containing serial 2-fold dilutions of the peptides (from 100 to 0.19 μM) in the wells a 96-well plate. Ciprofloxacin was used as antibiotic control. The plate was then incubated at 37 °C. MICs were obtained from three identical readings of four independent experiments.

[2] = tested on: Gram-positive bacteria tested; experiment: MIC panel, Gram-positive strains (geometric mean, range); type: cell-based; details: geometric mean of the MICs against Gram-positive bacteria tested
Protocol: as §2, §3

[3] = tested on: Gram-negative bacteria tested; experiment: MIC panel, Gram-negative strains (geometric mean); type: cell-based; details: geometric mean of the MICs against Gram-negative bacteria tested
Protocol: as §2, §3

[4] = type: cell-based, human; details: human
Protocol: (§4) For the evaluation of peptides’ cytotoxicity, the human immortalized keratinocytes (HaCaT cells), purchased from AddexBio (San Diego, CA, USA), and BEAS-2B were used. HaCaT cells were cultured in Dulbecco’s modified Eagle’s medium supplemented with 4 mM glutamine (DMEM), 10% heat-inactivated fetal bovine serum (FBS), and 0.1 mg/mL of penicillin and streptomycin, at 37 °C and 5% CO2. BEAS-2B cells were cultured in RPMI, supplemented with 2 mM glutamine (DMEM), 10% heat-inactivated fetal bovine serum (FBS), 1 mM sodium pyruvate, and 0.1 mg/mL of penicillin and streptomycin, at 37 °C and 5% CO2. Cytotoxicity was tested in vitro using a colorimetric assay that relies on the intracellular reduction of the yellow 3-(4,5-dimethylthiazol-2-yl)-2,5-diphenyltetrazolium bromide salt (MTT) by mitochondrial dehydrogenases of metabolically active cells in formazan crystals (purple). About 4 × 10^4 HaCaT and BEAS-2B cells, suspended in DMEM supplemented with 2% FBS, were plated in triplicate wells of a 96-well microtiter plate. The plate was incubated overnight at 37 °C and 5% CO2. Then, the cells were treated with different concentrations of the peptide (from 100 to 3.12 μM) in a fresh serum-free medium for 2 h and for a longer time (24 h). Following peptide treatment, the medium was removed, and MTT (0.5 mg/mL) solution in Hank’s buffer (136 mM NaCl, 4.2 mM Na2HPO4, 4.4 mM KH2PO4, 5.4 mM KCl, 4.1 mM NaHCO3, pH 7.2, supplemented with 20 mM D-glucose) was added to each well of the plate, that was then incubated for 4 h at 37 °C and 5% CO2. The purple formazan crystals were dissolved using acidified 2-propanol and a microplate reader (Infinite M200; Tecan, Salzburg, Austria) was used to measure the absorbance of each well at 570 nm. The percentage of cell viability was calculated compared to the control, which consisted of cells without any peptide treatment (corresponding to 100% viability) and all data represent the mean of three independent experiments ± SEM.

[5] = tested on: human keratinocytes (HaCaT cells); type: cell-based; details: human, 24 h
Protocol: as §4

[6] = Circular dichroism in water (BeStSel); type: physicochemical; details: predicted from CD spectra in H2O using BeStSel
Protocol: The secondary structure of each peptide was studied in solution and in small unilamellar vesicles (SUVs) mimicking Gram-positive and Gram-negative membranes performing CD analysis. The CD spectrum for each peptide in solution was recorded at 150 μM, using the quartz cells of 0.1 cm path length with a Jasco J-1500 CD Spectrometer at 25 °C. SUVs at the concentration of 150 μM (P/L = 1) and […] (P/L = 0.4) were prepared as reported: the lipid film was hydrated with water for 1h and then sonicated for 30 min. CD spectra were recorded at the peptide/lipid ratio of 1:1 both in the presence with SUVs mimicking Gram-positive and Gram-negative membranes. CD spectra were recorded at 25 °C on a in a 0.1 cm quartz cell using three consecutive scans from 260 to 190 nm, 3 nm bandwidth, a time constant of 16 s, and a scan rate of 10 nm/min.

[7] = background value; cited from earlier work
[8] = tested on: methicillin-resistant Staphylococcus aureus (MRSA); details: MRSA strain; ref Verma et al.; cited from earlier work
[9] = biological target: the molecule itself; experiment: Thioflavin T fluorescence; LUVs of DOPE:DOPG:CL (65:23:12, mol/mol/mol) mimicking the Gram-negative membrane, 100 uM lipid, titrated with 5-50 uM peptide; 100 mM NaCl, 10 mM Tris-HCl, 25 uM ThT, pH 7.4; peptide oligomerisation within the vesicles

CC[C@H](C)[C@H](NC(=O)[C@H](CCCNC(=N)N)NC(=O)[C@H]1CCC(=O)NCCCC[C@H](NC(=O)[C@H](Cc2ccccc2)NC(=O)[C@H](Cc2c[nH]c3ccccc23)NC(=O)[C@@H]2CCCN2C(=O)[C@@H](NC(=O)[C@@H](N)Cc2ccccc2)C(C)C)C(=O)N[C@@H](CCCNC(=N)N)C(=O)N[C@@H](Cc2ccccc2)C(=O)N[C@H](CC(C)C)C(=O)N1)C(=O)N[C@@H](CC(C)C)C(N)=O [Peptide 9, FVPWF[KRFle]RIL] (H-FVPWFKRF[dL][dE]RIL-NH2; lactam 6-10)
helicity (circular dichroism): 11% | MIC (A. baumannii ATCC 19606): 3.12 µM (≈ 5.4 µg/mL) | MIC (B. megaterium BM11): 1.56 µM (≈ 2.7 µg/mL) | MIC (E. coli ATCC 25922): 6.25 µM (≈ 10.8 µg/mL) | MIC (E. coli D21): 6.25 µM (≈ 10.8 µg/mL) | MIC (E. faecalis ATCC 29212): 12.5 µM (≈ 21.7 µg/mL) | MIC (P. aeruginosa PAO1): 50 µM (≈ 86.6 µg/mL) | MIC (S. agalactiae ATCC 27591): 3.12 µM (≈ 5.4 µg/mL) | MIC (S. aureus ATCC 25923): 6.25 µM (≈ 10.8 µg/mL) | MIC [1]: 3.12 µM (≈ 5.4 µg/mL) | geometric mean GMall (all bacteria tested): 7.67 µM | geometric mean GMGram+ [2]: 4.11 µM | geometric mean GMGram– [3]: 14.32 µM | CC50 at 24 h ([4]; CC50): > 50 µM | viability at 2 h, 3.12 µM ([4]; Cell viability (%)): 106% | viability at 2 h, 6.25 µM ([4]; Cell viability (%)): 106% | viability at 2 h, 12.5 µM ([4]; Cell viability (%)): 98% | viability at 2 h, 25 µM ([4]; Cell viability (%)): 94% | viability at 2 h, 50 µM ([4]; Cell viability (%)): 74% | viability at 2 h, 100 µM ([4]; Cell viability (%)): 22% | viability at 24 h, 3.12 µM ([4]; Cell viability (%)): 115 ± 23% | viability at 24 h, 6.25 µM ([4]; Cell viability (%)): 109 ± 24% | viability at 24 h, 12.5 µM ([4]; Cell viability (%)): 112 ± 20% | viability at 24 h, 25 µM ([4]; Cell viability (%)): 120 ± 13% | viability at 24 h, 50 µM ([4]; Cell viability (%)): 82 ± 10% | viability at 24 h, 100 µM ([4]; Cell viability (%)): 4 ± 2% | CC50 [5]: 54.3 µM | Content in water (%) random [6]: 53% | Content in water (%) α-helix [6]: 11% | Content in water (%) β-strand [6]: 36%

N=C(N)NCCC[C@H](N)C(=O)O [arginine]
pK a1 [7]: 2.18 | pK a2 [7]: 9.09 | pK a3 [7]: 13.20

NCCCC[C@H](N)C(=O)O [lysine]
pK a [7]: 10.94

FVQWFSKFLGRIL [TL, 13-mer linear antimicrobial peptide from Rana temporaria]
MIC [8]: 6.25 µM

B1: peptide 6 (cyclic Temporin L analogue with a guanidino pendant on the para position of Phe1) (peptide, UniProt P57104 1-13, looked up)
peptide: [Phe(4-guanidino)]VPWFKKF[dL][dE]RIL-NH2
modifications: lactam 6-10; N-terminus assumed
SMILES: CC[C@H](C)[C@H](NC(=O)[C@H](CCCNC(=N)N)NC(=O)[C@H]1CCC(=O)NCCCC[C@H](NC(=O)[C@H](Cc2ccccc2)NC(=O)[C@H](Cc2c[nH]c3ccccc23)NC(=O)[C@@H]2CCCN2C(=O)[C@@H](NC(=O)[C@@H](N)Cc2ccc(NC(=N)N)cc2)C(C)C)C(=O)N[C@@H](CCCCN)C(=O)N[C@@H](Cc2ccccc2)C(=O)N[C@H](CC(C)C)C(=O)N1)C(=O)N[C@@H](CC(C)C)C(N)=O
notes: peptide 6 is peptide 2 with (p-guanidino)Phe in place of Phe1; also called compound 6; source: synthetic peptide (Fmoc-based US-SPPS, RP-HPLC purified, >97%)
% aggregation at P/L 0.5 [9]: ~40%

B2: peptide 2 (cyclic Temporin L analogue; TLcyc with D-Glu at position 10) (peptide, UniProt P57104 1-13, looked up)
peptide: FVPWFKKF[dL][dE]RIL-NH2
modifications: lactam 6-10
notes: peptide 2 is the [Pro3,DLeu9]TL frame cyclised between positions 6 (Lys) and 10 (D-Glu); Free N-terminal amine; also called compound 2; source: synthetic peptide (Fmoc-based US-SPPS, RP-HPLC purified, >97%)
% aggregation at P/L 0.5 [9]: ~60%

B3: peptide 7 (cyclic Temporin L analogue with a guanidino pendant at position 4 of the Pro3 ring) (peptide, UniProt P57104 1-13, looked up)
peptide: FV[Pro(4-guanidino)]WFKKF[dL][dE]RIL-NH2
modifications: lactam 6-10
notes: peptide 7 is peptide 2 with (4-guanidino)Pro in place of Pro3; also called compound 7; source: synthetic peptide (Fmoc-based US-SPPS, RP-HPLC purified, >97%)
% aggregation at P/L 0.5 [9]: ~60%
